Measurements from patent US20110184178A1, “POLYMORPHS OF 5-(3-(ETHYLSULFONYL)PHENYL)-3,8-DIMETHYL-N-(1-METHYLPIPERIDIN-4-YL)-9H-PYRIDO[2,3-B]INDOLE-7-CARBOXAMIDE AND METHODS OF USE THEREFOR” (Takeda Pharmaceutical Company Limited, priority 2008, published 2011).
Where a name gives a salt, the structure may show the parent alone. One block for each molecule: values may come before it.

Legend:
Format in all cases: physicochemical
[1] = Physical characterization of the polymorphs and salt (XRPD, DSC, TGA, 1H-NMR, KF, moisture sorption): stability assessment; conditions: solid form
Procedure: Described herein are Form A, Form B, Form C, Form D, Form E, Form F and Form G of Compound I. Various tests were performed in order to physically characterize the polymorphs of Compound I, including X-ray powder diffraction (XRPD), differential scanning calorimetry (DSC), thermogravimetric analysis (TGA), solution proton nuclear magnetic resonance (^1H-NMR), and moisture sorption and desorption analysis (M S/Des). Detailed experimental conditions for each of the analytical techniques are described in the Examples section. […] A summary of these experiments and the results are presented below and in Table 12.

[2] = Approximate solubility screen of Compound I in different solvents; conditions: for solubility: organic solvent or mixture, thermodynamic from solid
Procedure: A solubility screen of Compound I was evaluated in 20 different solvents chosen as MeCN, dioxane, acetone, MtBE, EtOH, EtOAc, IPAc, IPA, THF, 2-MeTHF, MEK, DMF, AcOH, MeOH, cyclohexane, heptane, DCM, toluene, NMP, and DMAc, to select appropriate primary and binary solvents for the polymorph screen. One to four mg of the Compound I was charged to 2-dram clear vials equipped with magnetic stir bars and solvent was added in 250-μL portions with heating to 55° C. until complete dissolution was observed or a maximum of 6 mL was added. […] Solvents and other reagents were of ACS or HPLC grade and were used as received.

[3] = Solubility study of Form A in de-ionized water and 20 mM phosphate buffer at pH 3.2 (HPLC, XRPD of solids); conditions: for solubility: thermodynamic from solid
Procedure: Solubility was determined for Form A of Compound I by suspending the material in de-ionized water and 20 mM phosphate buffer at pH 3.2 and ambient temperature. Approximately 40 mg of Form A of Compound I was charged to 2-dram amber vials equipped with magnetic stir bars, followed by the addition of DI water or phosphate buffer (2.0 mL) in one portion. The samples were allowed to equilibrate with stirring for 16 h, followed by centrifugation. An aliquot of the supernatant liquid was analyzed by HPLC, and the solids isolated by filtration and dried under vacuum at ambient temperature for analysis by XRPD. Samples were allowed to stir for an additional 6 days and concentration determined by HPLC.

[4] = Slurry experiments (form by XRPD after slurrying in a solvent); conditions: 2.0 mL
Procedure: 50 to 60 mg of Form A of Compound I was weighed out into 2 dram amber vials and the material was slurried in 2 mL of a solvent. The slurry experiments were carried out at either ambient temperature or at 40° C. Samples were obtained from slurries after one day, one week, and two weeks. Tables 15 and 16 detail the results of the slurry experiments.

[5] = Moisture-sorption analysis (gravimetric adsorption/desorption, 25° C.)
Procedure: Further, the material gained enough water to form the dihydrate in approximately 45 minutes at 30% RH during adsorption and lost enough water to form the anhydrate at 15% RH during desorption in less than 60 minutes. […] The sample was further allowed to equilibrate at ambient laboratory conditions overnight and reanalyzed by XRPD. […] The moisture sorption experiment of Form C of Compound I provides a curve similar to the Form A curve (FIG. 11). […] Further, the material gained enough water to form the dihydrate in less than 60 minutes at 30% RH during adsorption and lost enough water to form the anhydrate at 15% RH during desorption in approximately 80 minutes. […] Moisture-sorption experiments were carried out on all samples by first drying the sample at 0% RH and 25° C. until an equilibrium weight was reached or for a maximum of four hours. The sample was then subjected to an isothermal (25° C.) adsorption scan from 10 to 90% RH in steps of 10%. Samples were then allowed to equilibrate to an asymptotic weight at each point for a maximum of four hours. Following adsorption, a desorption scan from 85 to 0% RH (at 25° C.) was run in steps of −10% again allowing a maximum of four hours for equilibration to an asymptotic weight. Samples were dried for one hour at 80° C. and the resulting solids analyzed by XRPD.

[6] = Form A slurried in water, 40 ° C.
[7] = Form A slurried in water, Ambient

Structure (SMILES): CCS(=O)(=O)c1cccc(-c2cc(C(=O)NC3CCN(C)CC3)c(C)c3[nH]c4ncc(C)cc4c23)c1 [Form B, 5-(3-(ethylsulfonyl)phenyl)-3,8-dimethyl-N-(1-methylpiperidin-4-yl)-9H-pyrido[2,3-b]indole-7-carboxamide]
stability (based on the available characterization data) [1]: stable under ambient non-aqueous conditions

Structure (SMILES): CCS(=O)(=O)c1cccc(-c2cc(C(=O)NC3CCN(C)CC3)c(C)c3[nH]c4ncc(C)cc4c23)c1 [Form E, 5-(3-(ethylsulfonyl)phenyl)-3,8-dimethyl-N-(1-methylpiperidin-4-yl)-9H-pyrido[2,3-b]indole-7-carboxamide]
stability (based on the available characterization data) [1]: stable under ambient non-aqueous conditions

Structure (SMILES): CCS(=O)(=O)c1cccc(-c2cc(C(=O)NC3CCN(C)CC3)c(C)c3[nH]c4ncc(C)cc4c23)c1 [Form D, 5-(3-(ethylsulfonyl)phenyl)-3,8-dimethyl-N-(1-methylpiperidin-4-yl)-9H-pyrido[2,3-b]indole-7-carboxamide]
stability (based on the available characterization data) [1]: stable under ambient non-aqueous conditions

Structure (SMILES): CCS(=O)(=O)c1cccc(-c2cc(C(=O)NC3CCN(C)CC3)c(C)c3[nH]c4ncc(C)cc4c23)c1 [HPF6 salt of Compound I]
stability (based on the available characterization data) [1]: stable under ambient conditions

More lines, main results first:

Soluble ([2]; 2-Me—THF, 1.6 mg, 5.75 mL, heating to 55° C.): No | Soluble ([2]; AcOH, 2.1 mg in 0.75 mL, Temp RT): Yes | Conc. ([2]; AcOH, Temp RT, 2.1 mg in 0.75 mL): 2800 µg/mL | Soluble ([2]; DCM, 2.6 mg, 4.50 mL, heating to 55° C.): No | Soluble ([2]; DMA, 2.8 mg in 0.50 mL, Temp 55): Yes | Conc. ([2]; DMA, Temp 55, 2.8 mg in 0.50 mL): 5600 µg/mL | Soluble ([2]; DMF, 1.8 mg in 0.50 mL, Temp RT): Yes | Conc. ([2]; DMF, Temp RT, 1.8 mg in 0.50 mL): >3600 µg/mL | Soluble ([2]; EtOAc, 2.2 mg, 5.75 mL, heating to 55° C.): No | Soluble ([2]; EtOH, 1.6 mg in 4.75 mL, Temp 55): Yes | Conc. ([2]; EtOH, Temp 55, 1.6 mg in 4.75 mL): 340 µg/mL | Soluble ([2]; Heptane, 1.9 mg, 3.50 mL, heating to 55° C.): No | Soluble ([2]; IPAC, 2.6 mg, 5.75 mL, heating to 55° C.): No | Soluble ([2]; MTBE, 1.3 mg, 5.75 mL, heating to 55° C.): No | Soluble ([2]; MeCN, 1.7 mg in 5.75 mL, Temp 55): Yes | Conc. ([2]; MeCN, Temp 55, 1.7 mg in 5.75 mL): 300 µg/mL | Soluble ([2]; MeOH, 1.7 mg in 2.00 mL, Temp 55): Yes | Conc. ([2]; MeOH, Temp 55, 1.7 mg in 2.00 mL): 850 µg/mL | Soluble ([2]; NMP, 2.4 mg in 0.50 mL, Temp 55): Yes | Conc. ([2]; NMP, Temp 55, 2.4 mg in 0.50 mL): 4800 µg/mL | Soluble ([2]; THF, 1.3 mg in 3.75 mL, Temp 55): Yes | Conc. ([2]; THF, Temp 55, 1.3 mg in 3.75 mL): 350 µg/mL | Soluble ([2]; Toluene, 1.8 mg, 3.50 mL, heating to 55° C.): No | Soluble ([2]; c-Hexane (cyclohexane), 1.8 mg, 3.50 mL, heating to 55° C.): No | solubility (in words) ([2]; in MeCN, MTBe, EtOAc, IPAc, IPA, THF, MEK, heptane and water): Poor solubility | solubility (in words) ([2]; in MeOH, DMF, DMA, NMP, CHCl3, AcOH and EtOH): Good solubility | solubility (in words) ([2]; in polar solvents including MeCN, EtOH, THF, DMF, AcOH, MeOH, NMP, and DMAc): appreciable solubility | solubility ([2]; Acetone, 1.8 mg, 5.75 mL, heating to 55° C.): < 0.33 mg/mL | solubility ([2]; Dioxane, 1.7 mg, 5.75 mL, heating to 55° C.): < 0.33 mg/mL | solubility ([2]; IPA, 1.2 mg, 5.75 mL, heating to 55° C.): < 0.33 mg/mL | solubility ([2]; MEK, 1.9 mg, 5.75 mL, heating to 55° C.): < 0.33 mg/mL | solubility ([3]; aqueous buffer, 20 mM phosphate buffer at pH 3.2): < 0.1 mg/mL | solubility ([3]; de-ionized water, water): < 0.1 mg/mL | XRPD Results Day 1* ([4]; Form A slurried in Acetone, Ambient): amorphous | XRPD Results Day 1* ([4]; Form A slurried in MEK, Ambient): amorphous | XRPD Results Day 1* ([4]; Form A slurried in THF, Ambient): amorphous | XRPD Results Day 1* [4, 6]: amorphous | XRPD Results Week 1* [4, 6]: amorphous | XRPD Results Day 1* [4, 7]: amorphous | XRPD Results Week 1* [4, 7]: amorphous
Structure (SMILES): CCS(=O)(=O)c1cccc(-c2cc(C(=O)NC3CCN(C)CC3)c(C)c3[nH]c4ncc(C)cc4c23)c1 [Compound I, 5-(3-(ethylsulfonyl)phenyl)-3,8-dimethyl-N-(1-methylpiperidin-4-yl)-9H-pyrido[2,3-b]indole-7-carboxamide]

form conversion in aqueous media ([3]; during the solubility determination): converted to Form A | time to lose enough water to form the anhydrate ([5]; at 15% RH during desorption): approximately 80 minutes | time to gain enough water to form the dihydrate ([5]; at 30% RH during adsorption): less than 60 minutes
Structure (SMILES): CCS(=O)(=O)c1cccc(-c2cc(C(=O)NC3CCN(C)CC3)c(C)c3[nH]c4ncc(C)cc4c23)c1 [Form C, 5-(3-(ethylsulfonyl)phenyl)-3,8-dimethyl-N-(1-methylpiperidin-4-yl)-9H-pyrido[2,3-b]indole-7-carboxamide]
hydration state in the moisture sorption experiment ([5]; during both adsorption and desorption, 25° C.): convert to a stable dihydrate above 20% RH | stability (based on the available characterization data) [1]: stable under ambient low humidity conditions
